# Experimental data as given in patent US9675714B1, “Graphene based theranostics for tumor targeted drug/gene delivery and imaging” (University of South Florida, priority 2013, dated 2017).
# Test system: A549 lung cancer cells
# Test: Cellular uptake and intracellular drug release by confocal laser scanning microscopy
# Assay type: cell-based
# Settings: 20 h incubation
# Experimental: FIGS. 15A-15F show confocal microscopic images of A549cells after 20 h incubation with doxorubicin (15A-15C) or doxorubicin-CMG nanoparticles (15D-15F). […] Nuclei were stained with DAPI as a control (15A and […]). DAPI and doxorubicin images were merged for comparison (15C-15F).
# To test the drug delivery capacity of CMG NPs, DOX was loaded into CMG nanoparticles by physical adsorption. The UV-Vis spectrum of DOX-CMG nanoparticles was used to confirm the loading of DOX onto CMG nanoparticles. […] DOX loading was confirmed by the presence of the characteristic absorbance peak of DOX-CMG at 485 nm (FIG. 12,b), which corresponded to the peak of free DOX (FIG. 12,c). The hydrodynamic diameter of DOX-loaded CMG nanoparticles was about 91 nm and was similar to the CMGs alone (FIGS. 5A-5F). The loading capacity of CMG nanoparticles for DOX was investigated by mixing a fixed concentration of CMG (2 mg/mL) with various initial DOX concentrations as shown in FIG. 13. […] The drug-release kinetics of DOX-CMG nanoparticles was determined at pH about 5.1 and about 7.4 (FIG. 14). […] To determine the effectiveness of the DOX-CMG nanoparticles in killing A549 cancer cells, cells were treated with DOX-CMG nanoparticles with increasing concentrations of DOX, or free DOX, for about 72 h and analyzed using the Presto Blue cell viability assay.
compound,measurement,value
"COc1cccc2c1C(=O)c1c(O)c3c(c(O)c1C2=O)C[C@@](O)(C(=O)CO)C[C@@H]3O[C@H]1C[C@H](N)[C@H](O)[C@H](C)O1 [DOX, doxorubicin]",subcellular localization of DOX,concentrated in the nuclei
